How the values were obtained:
cancer cell lines = tested on: cancer cell lines; set-up: method as in PMID 28901329; conditions: cited from earlier work
[1] = tested on: Plasmodium falciparum 3D7; set-up: method as in PMID 28901329; conditions: cited from earlier work
[2] = tested on: human malignant melanoma cell line A-375; experiment: CellTiterBlue cell viability assay, malignant melanoma cell line A-375; type: cell-based; conditions: for IC50: Homo sapiens, A-375 cells, 24 h treatment, CellTiterBlue, read-out: IC50 against A-375 cells
Experimental: (§1) The crude extracts were initially tested in vitro against 5 human cancer cell lines: colorectal adenocarcinoma cell line HT-29 (DSMZ, Braunschweig, Germany), malignant melanoma cell line A-375 (CLS, Eppelheim, Germany), colon cancer cell line HCT-116 (DSMZ), lung carcinoma cell line A-549 (CLS, Eppelheim, Germany), human breast cancer line MB-231 (CLS), and the non-cancerous human keratinocyte line HaCaT (CLS) at a concentration of 100 µg/mL. The antitumoral activity of the crude extracts was evaluated by monitoring the metabolic activity using the CellTiterBlue Cell Viability Assay (Promega, Mannheim, Germany). HT-29 and HaCaT cells were cultivated in RPMI medium, A-549 and MB-231 cells in DMEM: Ham’s F12 medium (1:1) supplemented with 15 mM HEPES and A-375 and HCT-116 cells in DMEM medium supplemented with 4.5 g/L D-Glucose and 110 mg/L sodium pyruvate. All media were supplemented with L-Glutamine, 10% fetal bovine serum, 100 U/mL penicillin, and […] streptomycin. The cultures were maintained at 37 °C under a humidified atmosphere and 5% CO2. The cell lines were transferred every 3 or 4 days. For experimental procedure, the cells were seeded in 96 well plates at a concentration of 10,000 cells per well. A stock solution of 40 mg/mL in DMSO was prepared of each extract. After 24 h incubation, the medium was removed from the cells and 100 µL fresh medium containing the test samples was added. Each sample was prepared in duplicate once. Doxorubicin as a standard therapeutic drug was used as positive control, 0.5% DMSO and growth media were used as controls. Following compound addition, plates were cultured at 37 °C for 24 h. Afterwards, the assay was performed according to the manufacturer’s instructions and measured using the microplate reader Tecan Infinite M200 at excitation 560 nm and emission of 590 nm. For determination of IC50 values, a dilution series of the extracts was prepared and tested, as described before for the crude extract.

[3] = tested on: non-cancerous human keratinocyte cell line HaCaT; experiment: CellTiterBlue cell viability assay, non-cancerous keratinocyte line HaCaT (general toxicity); type: cell-based; conditions: HaCaT cells, 24 h treatment, read-out: IC50 against HaCaT cells
Experimental: as §1

| Compound | activity against cancer cell lines (cancer cell lines) | antimalarial activity [1] | IC50 [2] [µM] | IC50 [3] [µM] | selectivity index (IC50 value against HaCaT cells / IC50 value against A-375 cells) ([2]; HaCaT vs A-375) |
| --- | --- | --- | --- | --- | --- |
| wakodecaline A | inactive | moderate antimalarial activity | – | – | – |
| CC(=O)/C=C/[C@@H]1[C@H]2C(C)=C[C@H]3C[C@@H](C)CC[C@@H]3[C@@]2(C)C(=O)[C@@]12C(=O)[C@@H](CO)N(C)C2=O [Compound 3, Pyrenosetin C] | – | – | 140 | 143 | – |
| COc1cccc2c1C(=O)c1c(O)c3c(c(O)c1C2=O)C[C@@](O)(C(=O)CO)C[C@@H]3O[C@H]1C[C@H](N)[C@H](O)[C@H](C)O1 [Doxorubicin, reference compound] | – | – | 0.6 | 22.1 | – |
| CC(=O)/C=C/[C@H]1[C@H](C(=O)N(C)[C@H](CO)C(=O)O)C(=O)[C@@]2(C)[C@@H]1C(C)=C[C@H]1C[C@@H](C)CC[C@@H]12 [wakodecaline B] | inactive | moderate antimalarial activity | – | – | – |
| C/C=C/C=C/[C@H]1C(C)=C[C@H]2C[C@@H](C)CC[C@@H]2[C@@]1(C)/C(O)=C1/C(=O)[C@@H](CO)N(C)C1=O [Compound 4, Phomasetin] | – | – | 37.3 | 45 | – |
| CC1=C[C@H]2C[C@@H](C)CC[C@@H]2[C@@]2(C)C(=O)[C@@]3(C(=O)[C@@H](CO)N(C)C3=O)[C@H](/C=C/[C@@H](C)O)[C@@H]12 [Compound 2, Pyrenosetin B] | – | – | 6.3 | 35 | around 5.6 |
| CC1=CC2CC(C)CCC2C2(C)C(=O)C3(C(=O)C(CO)N(C)C3=O)C(C=CC(C)O)C12 (stereo not drawn) [Compound 1, Pyrenosetin A] | – | – | 2.8 | 4.2 | – |
